The values that follow come from article PMC7866587, “Cell cycle arrest and apoptosis induction by Juniperus communis extract in esophageal squamous cell carcinoma through activation of p53‐induced apoptosis pathway” (Food Science & Nutrition, 2020).

The subject of test [1] is MDCK cells. The experiment in a line: MTT cell viability assay (normal cells). To be noted: Canis lupus familiaris, mean ± SD. The class given is cell-based, cannis. How it is done:
(§1) CE81T/VGH (human esophageal squamous cell carcinoma), CE48T/VGH (human esophageal epidermoid carcinoma (VGH), SVEC (mouse vascular endothelial cell) and MDCK (cannis kidney epithelial cells) were purchased from the Food Industry Research and Development Institute. CE81T/VGH, CE48T/VGH, SVEC, and MDCK were cultured in Dulbecco's Modified Eagle Medium supplemented with 10% fetal bovine serum (Gibco BRL), 10 mM HEPES (Gibco), 1 mM pyruvate (Gibco), P/S (100 μg/ml penicillin, and 100 μg/ml streptomycin; Gibco), and non‐essential amino acids (Gibco, CE81T/VGH and CE48T/VGH only). Cells were grown in 10 cm^2 culture dishes in a humidified atmosphere with 5% CO2 at 37°C. The TP53 in the CE81T/VGH cells was mutated, which was detected using automated extraction of nucleic acids (AccuBioMed Co., Ltd.) and Femtopath Human Primer Sets (HongJing Biotech). JCo was purchased from the PHOENIX company and extracted using steam distillation. The clinical drug 5‐Fluorouracil (5‐FU; Sigma) was prepared in dimethyl sulfoxide (DMSO) in each in vitro experiment. Cells were treated with equivalent amounts of DMSO in the control and treatment groups, and the final concentration of DMSO in each experiment was 0.01%–0.5%.
(§2) The viability of CE81T/VGH, CE48T/VGH, MDCK, and SVEC cells was determined using a modified 3‐(4,5‐dimethylthiazol‐2‐yl)‐2,5‐diphenyltetrazolium bromide (MTT) assay. Cells were cultured in a 96‐well plate at a density of 5 × 10^3 cells/well for 24 hr and treated with different concentrations of JCo extract or 5‐FU for 24, 48, and 72 hr. MTT was dissolved in the base medium (400 μg/mL, Sigma), and 100 μl of solution was added into each well and incubated for 6–8 hr. The MTT formazan crystals were dissolved in 50 μL DMSO and the optical density (O.D.) was detected using a microplate reader (Molecular Devices, Spec384) at 550 nm. Cell viability was calculated as the O.D. percentage relative to the controls. The half‐maximal inhibitory concentration (IC50) value of JCo extract was measured from the cell viability assay.
(Tetrazolium dyes change colour on reduction, which living cells bring about.)

The subject of test [2] is SVEC cells. Description: MTT cell viability assay (normal cells). The class given is cell-based. Conditions: Mus musculus, mean ± SD. The protocol:
as §1, §2

Test [3] has as its system CE48T/VGH cells. The experiment in a line: MTT cell viability assay. The class given is cell-based, human. Conditions: mean ± SD; for IC50: Homo sapiens. The protocol:
as §1, §2

Test [4] has as its system CE81T/VGH cells. The experiment in a line: MTT cell viability assay. The class given is cell-based, human. To be noted: for IC50: Homo sapiens, CE81T/VGH, mean ± SD. The protocol:
as §1, §2

Converted amounts (≈) assume the structure as drawn.

On to `O=c1[nH]cc(F)c(=O)[nH]1` [5‐FU, 5‐fluorouracil], for which the IC50 in test [1] (24 hr) is > 20 µg/mL; in test [1] (48 hr), < 0.63 µg/mL; in test [1] (72 hr) it was < 0.63 µg/mL; in test [2] (24 hr) it was 3.53 ± 0.29 µg/mL (≈ 27.1 µM); in test [2] (48 hr), < 0.63 µg/mL; in test [2] (72 hr), < 0.63 µg/mL. Besides, the IC50 in test [3] (24 hr) is 16 ± 0.03 µg/mL (≈ 123 µM); in test [3] (72 hr) it was 3.73 ± 0.06 µg/mL (≈ 28.7 µM); in test [4] (24 hr) it was > 20 µg/mL; in test [4] (48 hr) it was 15.3 ± 6.74 µg/mL (≈ 118 µM); in test [4] (72 hr) it was 1.62 ± 0.04 µg/mL (≈ 12.5 µM). In addition, in test [3] (48 hr), the “IC50 (cell viability)” value was 5.64 ± 0.34 µg/mL (≈ 43.4 µM). Further, the “selection for ESCC versus normal cells (from IC50 values)” value in test [4] (after 48 and 72 hr) is listed as “lower”. In addition, in test [4] (after 24 hr), the “selection between ESCC and normal cells (from IC50 values)” value was “no obvious selection”.

In general, IC50 refers to the concentration needed to halve the response being measured. Read a high IC50 as weaker potency in that assay.
